We go through two molecules from patent publication US20230346718A1, “METHOD OF TREATING, AMELIORATING AND/OR […]” (YALE UNIVERSITY, priority 2022, published 2023).

Data set [1] relates to healthy controls (HC) and MDD participants. Kind of data set: Cardiovascular safety: blood pressure and heart rate after intravenous DMT. The class given is in vivo, human. The protocol: (§1) Blood pressure was measured at baseline and 5, 10, 15, 20, 30, 45, 60, and 120 minutes after drug administration. Heart rate and pulse oximetry were measured continuously. Subjective drug effects were measured 60 min before, as well as 30 and 120 min after drug administration.

For data set [2] the test system is unchanged. Kind of data set: Adverse events of the dosing sessions. The class given is in vivo, human. From the text: Given the intensity and brevity of DMT effects, participants were allowed a mostly uninterrupted experience with psychiatrists utilizing a non-directive and supportive approach. Participants were asked how they were feeling at the same time points as the physiological recordings; no psychotherapy was provided. Rescue medications for psychological distress (lorazepam and risperidone) and hypertension (labetalol) were available. Prior to discharge, a field sobriety test and mini-mental status examination were conducted to confirm return to baseline.

For data set [3] the test system is unchanged. Kind of data set: Psychedelic effects, 23-item Psychedelic Effects Visual Analog Scale. Format: in vivo, human. Conditions: for Peak change in VAS psychedelic composite score: mean (SD). The procedure: as §1
Both the VAS Psychedelic effects, and PSI were measured before dose administration, shortly after resolution of effects, and again near time of discharge. Subjects were instructed to retroactively rate the effects during the peak effects, given that they might not be able to accurately assess and report effects while immersed in the peak effects.

Data set [4] shares this test system. Kind of data set: Psychotomimetic States Inventory (PSI). The class given is in vivo, human. The protocol:
(§2) Both the VAS Psychedelic effects, and PSI were measured before dose administration, shortly after resolution of effects, and again near time of discharge. Subjects were instructed to retroactively rate the effects during the peak effects, given that they might not be able to accurately assess and report effects while immersed in the peak effects. […] In addition to day-after dosing follow up, subjects were contacted 1, 2, and 12 weeks after completion of the last dosing session to follow up on safety and wellbeing.

Data set [5] shares this test system. Kind of data set: In session VAS anxiety and depression. Format: in vivo, human. Conditions: for Peak change in VAS depression: MDD participants only; for Peak change in VAS depression / Peak change in VAS anxiety scale: mean (SD); for Peak change in VAS anxiety scale: all participants. The procedure: as §2
Data set [6] shares this test system. Kind of data set: Drug desirability / reinforcement and abuse liability measures. Format: in vivo, human. Conditions: for monetized value of drug effects (scale from 0-100 dollars): mean (SD). The protocol: VAS measures of tolerability, willingness to pay for the experience, and likelihood to use DMT were analyzed similarly. […] HAM-D for each dose was compared to baseline using paired t-tests. […] For 23-item VAS psychedelic effects, multiple comparison correction was performed using false discovery rate (FDR) correction for all measures in order to increase statistical power and minimize […] errors (Benjamini and Hochberg, Journal of the Royal Statistical Society. Series B (Methodological) Vol. 57, No. 1 (1995), pp. 289-300). For PSI effects, Bonferroni correction was utilized.

Data set [7] in a line: Serum DMT levels after intravenous DMT hemifumarate. The class given is in vivo, human. Conditions: IV 0.1 and 0.3 mg/kg; 30 and 60 min after administration. The procedure: FIGS. 19A-19B depict serum DMT levels in healthy control (FIG. 19A) and depression subjects (FIG. 19B) with intravenous administration of DMT hemifumarate, in accordance with some embodiments. Y-axis: serum DMT levels (ng/dl); X-axis: 60 min before DMT administration; and 30 and 60 min after DMT administration. […] Solid line (0.1 mg/kg) and dotted line (0.3 mg/kg).
Referring to FIGS. 19A-19B, the present study further reports for the first-time dose-related serum DMT levels in MDD subjects who received 0.1 and […] of IV DMT. The findings in healthy controls are mostly consistent with other studies and PK models (Callaway et al., J Ethnopharmacol. 1999 June; 65(3):243-56; Gallimore and Strassman, Front. Pharmacol., 14 Jul. 2016). […] Given the increased rigor of the assay for DMT utilized in this study, it is unlikely that the variability observed in MDD subjects is spurious. It may be important to note that while DMT's acute effects had mostly resolved by +30 min time point, it is conceivable that peripheral concentration may differ from the central site of action.

For data set [8], the target named is serotonin 5-HT2A receptors (Homo sapiens, UniProt P28223). Conditions: literature; cited from earlier work.
The next data set deals with healthy volunteers. Particulars: literature, cited from earlier work.
The test system of data set [9] is healthy controls (HC) and MDD participants. Kind of data set: Overall tolerability of test day, visual analog scale. Particulars: for overall tolerability (0=intolerable to 100=well-tolerated): mean (SD).

Entries after “also recorded” stand apart in the source; their conditions may differ. Bounds are passed on as bounds.

Chain of serotonin 5-HT2A receptors (P28223 whole entry): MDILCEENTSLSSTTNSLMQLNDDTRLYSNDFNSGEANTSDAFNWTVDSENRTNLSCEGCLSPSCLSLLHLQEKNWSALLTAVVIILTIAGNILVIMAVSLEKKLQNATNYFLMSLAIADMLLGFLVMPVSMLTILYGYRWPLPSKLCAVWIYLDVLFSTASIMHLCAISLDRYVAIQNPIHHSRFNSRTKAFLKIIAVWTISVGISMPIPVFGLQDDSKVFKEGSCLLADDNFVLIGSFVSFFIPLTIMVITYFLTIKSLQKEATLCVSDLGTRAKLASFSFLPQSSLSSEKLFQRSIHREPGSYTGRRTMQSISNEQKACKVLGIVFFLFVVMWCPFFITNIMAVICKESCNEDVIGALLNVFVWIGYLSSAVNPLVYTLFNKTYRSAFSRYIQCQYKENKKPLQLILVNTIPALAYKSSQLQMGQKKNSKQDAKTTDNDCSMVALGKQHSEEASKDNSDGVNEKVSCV

As for `CN(C)CCc1c[nH]c2ccccc12` [DMT hemifumarate, N,N-dimethyltryptamine hemifumarate], the “water solubility (in words)” value in the data set “Water solubility” is “water-soluble”.

As for `CN(C)CCc1c[nH]c2ccccc12` [DMT, N,N-dimethyltryptamine], in data set [1] (0.1 and 0.3 mg/kg IV, no significant dose or dose-time effects), the “effect on systolic and diastolic blood pressure, and heart rate” value is reported as “increased”. Moreover, in data set [1] (post-hoc analyses), the “time point with significant increases in heart rate relative to baseline” value is reported as “+5 minute”. In data set [2] (0.3 mg/kg IV, measured continuously), the “oxygen saturation during the serious adverse event” value was 100%. In addition, the “severity of adverse events (in words)” value in [2] (0.1 and 0.3 mg/kg IV) is on record as “mostly mild”. Further, in data set [2] (all dosing sessions), the “clinically relevant psychotic symptoms” value was “None of the participants”. In data set [2] (asymptomatic bradycardia and hypotension in a MDD participant after 0.3 mg/kg), the “number of serious adverse events” value was “one”. The “symptoms in one healthy subject with anticipatory anxiety” value in [2] (following 0.1 mg/kg, symptoms lasted 10 minutes) is “lightheadedness, and pallor”. Further, the “heart rate in the serious adverse event” value in data set [2] (person, 5 minutes after 0.3 mg/kg IV, dropped from 54) turned out to be 42 beats per minute. In data set [2] (person, 5 minutes after 0.3 mg/kg IV, dropped from 108/60), the “blood pressure in the serious adverse event” value was 71/42. The “Peak change in VAS psychedelic composite score” value is on record as 13.16 (SD 11.91) in [3] (0.1 mg/kg session) and 55.83 (SD 23.89) in data set [3] (0.3 mg/kg dose). Moreover, the “Hedge's g, VAS psychedelic composite score dose difference” value in data set [3] (0.3 vs 0.1 mg/kg) came out at 2.2. The “Peak change in VAS psychedelic composite score, difference between doses” value in [3] (95% CI 33.30 to 52.03, p<0.0001) is given as 42.67. Besides, in [3] (FDR correction, q=0.05), the “number of the 23 VAS psychedelic items with significant dose-related differences” value is 16. For the same molecule, the “duration of acute effects / resolution after injection” value in data set [3] (IV) is 20 to 30 min. Moreover, the “time by which acute psychedelic effects completely subsided” value in [3] (IV push) is no more than 30 min. Also, the “time of peak of acute psychedelic effects after dosing” value in [3] (IV push) lay within 5 to 10 min. For the same molecule, the “Mean peak change in Psychotomimetic States Inventory (PSI) scale total score” value in [4] (0.1 mg/kg session, mean (SD)) is recorded as 7.33 (SD 7.62); in data set [4] (0.3 mg/kg session), 31.67 (16.57). Also, the “Hedge's g, PSI total score dose difference” value in [4] (0.3 vs 0.1 mg/kg) was 1.89. In addition, the “PSI total score peak change, difference between doses” value in data set [4] (95% CI 12.74 to 35.94, p=0.001) worked out at 24.33. Besides, the “Peak change in VAS anxiety, difference between doses” value in data set [5] (95% CI −14.30 to 68.53, p=0.26) was found to be 27.11. Further, in data set [5] (95% CI −41.47 to 57.47, p=0.92), the “Peak change in VAS depression, difference between doses” value came to 8.00. Further, the “Peak change in VAS depression” value in data set [5] (0.1 mg/kg session) was 6.83 (SD 28.94); in data set [5] (0.3 mg/kg session) it was 14.83 (SD 37.79). In addition, the “Peak change in VAS anxiety scale” value is recorded as 2.56 (SD 31.8) in [5] (0.1 mg/kg session) and 29.67 (SD 39.96) in [5] (0.3 mg/kg session). The figures for the “monetized value of drug effects (scale from 0-100 dollars)” value in [6] (0.1 mg/kg session) and in [6] (0.3 mg/kg session) were 25.56 (SD 29.07) dollars and 24.78 (SD 33.36) dollars, respectively. Besides, the “willingness to use DMT, difference between doses” value in data set [6] (95% CI −16.74 to 13.62, p=0.90) is −1.56. For the same molecule, the “monetized value of drug effects, difference between doses” value in data set [6] (95% CI −32.38 to 33.94, p=0.89) is recorded as −0.78. For the same molecule, in [6] (intravenous), the “abuse potential (in words)” value is listed as “low abuse potential”. In addition, the “serum DMT levels in MDD subjects compared with healthy controls (in words)” value in data set [7] is “can have higher serum DMT levels; also recorded: greater variability”. In data set [8], the “activity at serotonin 5-HT2A receptors (in words)” value is reported as “agonist activity”. Further, the “tolerability in healthy controls (in words)” value in the data set with healthy volunteers (doses ranging from 0.05-0.4 mg/kg) is on record as “well-tolerated”. Also, in the data set with healthy volunteers (healthy volunteers), the “time to emergence of effects after intravenous administration” value is no more than 2 min. Also, the “dose above which psychedelic effects emerge” value in the data set with healthy volunteers (intravenous, healthy volunteers) is recorded as “higher than 0.2 mg/kg”. Besides, in the data set on healthy volunteers (intravenous), the “time to full resolution of effects” value is “about 30 minutes”. In “Water solubility”, the “water solubility (in words)” value is “not water soluble”. Besides, the “overall tolerability (0=intolerable to 100=well-tolerated)” value in data set [9] (0.1 mg/kg IV dose session) is listed as 89.80 (SD 12.95); in data set [9] (0.3 mg/kg IV dose session), 71.11 (SD 24.52). In data set [9] (0.3 vs 0.1 mg/kg, 95% CI −32.81 to −2.75, p=0.026), the “overall tolerability, difference between dose sessions” value was −17.78. The “tolerability (in words)” value in data set [9] (IV, HC and MDD participants) is “tolerated by both HC (n=3) and MDD participants (n=7); also recorded: well tolerated by both MDD patients and HC individuals”.
